# pIC50: −log10 of the molar value.
# What was measured:
# MV-4-11 = test: Oncology cell growth assay MV-4-11 (CellTiter Glo, 72 hours); assay type: cell-based; settings: Homo sapiens, MV4-11, 72 h; MV-4-11 cell growth inhibitory activity, 3d
# Method in brief: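 Growth read by CellTiter Glo luminescence after 72 h compound exposure of MV-4-11 AML cells (MLL-AF4), using 8-point 1:3 series to 10 μM final in 0.2% DMSO. Data normalized to DMSO wells, four-parameter fit yields pIC50.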
# bromodomain = test: Bromodomain cell assays of Example 40 (at least one of them); assay type: cell-based; settings: in at least one of the bromodomain cell assays described in Example 40
# Method in brief: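 Growth inhibition: 3000 MV-4-11, MOLM-13, MM.1S or neuroblastoma cells/well got an 8-point 1:3 series from 10 μM top (0.2% DMSO) for 72 h, then CellTiter-Glo luminescence. Myc reporter: MV-4-11 with E-box firefly luciferase, 24 h exposure, One-Glo luminescence plus CellTiter-Fluo cell count. pIC50 from four-parameter fit.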
smiles,measurement,setting,value
"Cc1noc(C)c1-c1cnc2c(C#CCO)cn(S(=O)(=O)C3CCCC3)c2c1 [P-0156, 3-[1-cyclopentylsulfonyl-6-(3,5-dimethylisoxazol-4-yl)pyrrolo[3,2-b]pyridin-3-yl]prop-2-yn-1-ol]",IC50,MV-4-11,≤ 1 µM
same,pIC50,bromodomain,> 5.00
"Cc1noc(C)c1-c1cnc2c(C#CCF)cn(S(=O)(=O)C3CCCC3)c2c1 [P-0158, 4-[1-cyclopentylsulfonyl-3-(3-fluoroprop-1-ynyl)pyrrolo[3,2-b]pyridin-6-yl]-3,5-dimethyl-isoxazole]",IC50,MV-4-11,≤ 1 µM
same,pIC50,bromodomain,> 5.00
"Cc1noc(C)c1-c1cnc2ccn(C(C)c3ccccc3)c2c1 (centres unmarked) [P-0159, 3,5-dimethyl-4-[1-(1-phenylethyl)pyrrolo[3,2-b]pyridin-6-yl]isoxazole]",IC50,MV-4-11,≤ 1 µM
same,pIC50,bromodomain,> 5.00
"C=CCn1cc(-c2cn(Cc3ccccc3)c3cc(-c4c(C)noc4C)cnc23)cn1 [P-0160, 4-[3-(1-allylpyrazol-4-yl)-1-benzyl-pyrrolo[3,2-b]pyridin-6-yl]-3,5-dimethyl-isoxazole]",IC50,MV-4-11,≤ 1 µM
same,pIC50,bromodomain,> 5.00
"Cc1noc(C)c1-c1cnc2c(-c3cnn(C)c3)cn(C(C)c3ccccc3)c2c1 (centres unmarked) [P-0161, 3,5-dimethyl-4-[3-(1-methylpyrazol-4-yl)-1-(1-phenylethyl)pyrrolo[3,2-b]pyridin-6-yl]isoxazole]",IC50,MV-4-11,≤ 1 µM
same,pIC50,bromodomain,> 5.00
"Cc1noc(C)c1-c1cnc2c(-c3cn[nH]c3)cn(S(=O)(=O)c3ccccc3)c2c1 [P-0163, 4-[1-(benzenesulfonyl)-3-(1H-pyrazol-4-yl)pyrrolo[3,2-b]pyridin-6-yl]-3,5-dimethyl-isoxazole]",IC50,MV-4-11,≤ 1 µM
same,pIC50,bromodomain,> 5.00
"Cc1noc(C)c1-c1cnc2[nH]cc(P(C)(=O)c3ccccc3)c2c1 (centres unmarked) [P-0165, 3,5-dimethyl-4-[3-[methyl(phenyl)phosphoryl]-1H-pyrrolo[2,3-b]pyridin-5-yl]isoxazole]",IC50,MV-4-11,≤ 1 µM
same,pIC50,bromodomain,> 5.00
"Cc1noc(C)c1-c1cnc2c(-c3cn[nH]c3)cn(S(=O)(=O)C3CCCC3)c2c1 [P-0167, 4-[1-cyclopentylsulfonyl-3-(1H-pyrazol-4-yl)pyrrolo[3,2-b]pyridin-6-yl]-3,5-dimethyl-isoxazole]",IC50,MV-4-11,≤ 1 µM
same,pIC50,bromodomain,> 5.00
"Cc1noc(C)c1-c1cnc2c(-c3cnn(C4CCCCO4)c3)cn(S(=O)(=O)c3ccccc3)c2c1 (centres unmarked) [P-0168, 4-[1-(benzenesulfonyl)-3-(1-tetrahydropyran-2-ylpyrazol-4-yl)pyrrolo[3,2-b]pyridin-6-yl]-3,5-dimethyl-isoxazole]",IC50,MV-4-11,≤ 1 µM
same,pIC50,bromodomain,> 5.00
"Cc1nc(Cn2cc(-c3cnn(C)c3)c3ncc(-c4c(C)noc4C)cc32)cs1 [P-0170, 3,5-dimethyl-4-[3-(1-methylpyrazol-4-yl)-1-[(2-methylthiazol-4-yl)methyl]pyrrolo[3,2-b]pyridin-6-yl]isoxazole]",IC50,MV-4-11,≤ 1 µM
same,pIC50,bromodomain,> 5.00
"Cc1noc(C)c1-c1cnc2c(-c3cnn(C)c3)cn(Cc3cscn3)c2c1 [P-0171, 3,5-dimethyl-4-[3-(1-methylpyrazol-4-yl)-1-(thiazol-4-ylmethyl)pyrrolo[3,2-b]pyridin-6-yl]isoxazole]",IC50,MV-4-11,≤ 1 µM
same,pIC50,bromodomain,> 5.00
"Cc1noc(C)c1-c1cnc2c(-c3cnn(C)c3)cn(Cc3ccccc3F)c2c1 [P-0172, 4-[1-[(2-fluorophenyl)methyl]-3-(1-methylpyrazol-4-yl)pyrrolo[3,2-b]pyridin-6-yl]-3,5-dimethyl-isoxazole]",IC50,MV-4-11,≤ 1 µM
same,pIC50,bromodomain,> 5.00
"Cc1noc(C)c1-c1cnc2c(-c3cnn(C)c3)cn(Cc3c(F)cccc3F)c2c1 [P-0173, 4-[1-[(2,6-difluorophenyl)methyl]-3-(1-methylpyrazol-4-yl)pyrrolo[3,2-b]pyridin-6-yl]-3,5-dimethyl-isoxazole]",IC50,MV-4-11,≤ 1 µM
same,pIC50,bromodomain,> 5.00
"Cc1noc(C)c1-c1cnc2c(-c3cnn(C(F)F)c3)cn(Cc3ccccc3F)c2c1 [P-0176, 4-[3-[1-(difluoromethyl)pyrazol-4-yl]-1-[(2-fluorophenyl)methyl]pyrrolo[3,2-b]pyridin-6-yl]-3,5-dimethyl-isoxazole]",IC50,MV-4-11,≤ 1 µM
same,pIC50,bromodomain,> 5.00
"Cc1noc(C)c1-c1cnc2c(c1)c(S(=O)(=O)c1ccccc1)cn2-c1cnn(C)c1 [P-0185, 4-[3-(benzenesulfonyl)-1-(1-methylpyrazol-4-yl)pyrrolo[2,3-b]pyridin-5-yl]-3,5-dimethyl-isoxazole]",IC50,MV-4-11,≤ 1 µM
same,pIC50,bromodomain,> 5.00
"CCOC(=O)C(c1ccccc1)n1cc(-c2cnn(C)c2)c2ncc(-c3c(C)noc3C)cc21 (centres unmarked) [P-0186, ethyl 2-[6-(3,5-dimethylisoxazol-4-yl)-3-(1-methylpyrazol-4-yl)pyrrolo[3,2-b]pyridin-1-yl]-2-phenyl-acetate]",IC50,MV-4-11,≤ 1 µM
same,pIC50,bromodomain,> 5.00
"Cc1noc(C)c1-c1cnc2c(-c3cnn(C)c3)cn(C(CF)c3ccccc3)c2c1 (centres unmarked) [P-0187, 4-[1-(2-fluoro-1-phenyl-ethyl)-3-(1-methylpyrazol-4-yl)pyrrolo[3,2-b]pyridin-6-yl]-3,5-dimethyl-isoxazole]",IC50,MV-4-11,≤ 1 µM
same,pIC50,bromodomain,> 5.00
"Cc1noc(C)c1-c1cnc2c(-c3cnn(C)c3)cn(Cc3ccccc3C(F)(F)F)c2c1 [P-0188, 3,5-dimethyl-4-[3-(1-methylpyrazol-4-yl)-1-[[2-(trifluoromethyl)phenyl]methyl]pyrrolo[3,2-b]pyridin-6-yl]isoxazole]",IC50,MV-4-11,≤ 1 µM
same,pIC50,bromodomain,> 5.00
"Cc1noc(C)c1-c1cnc2c(-c3cnn(C)c3)cn(Cc3c(Cl)cccc3Cl)c2c1 [P-0189, 4-[1-[(2,6-dichlorophenyl)methyl]-3-(1-methylpyrazol-4-yl)pyrrolo[3,2-b]pyridin-6-yl]-3,5-dimethyl-isoxazole]",IC50,MV-4-11,≤ 1 µM
same,pIC50,bromodomain,> 5.00
"Cc1noc(C)c1-c1cnc2c(-c3cnn(C)c3)cn(Cc3cc(F)ccc3Cl)c2c1 [P-0190, 4-[1-[(2-chloro-5-fluoro-phenyl)methyl]-3-(1-methylpyrazol-4-yl)pyrrolo[3,2-b]pyridin-6-yl]-3,5-dimethyl-isoxazole]",IC50,MV-4-11,≤ 1 µM
same,pIC50,bromodomain,> 5.00
"Cc1noc(C)c1-c1cnc2c(-c3cnn(C)c3)cn(C(CO)c3ccccc3)c2c1 (centres unmarked) [P-0192, 2-[6-(3,5-dimethylisoxazol-4-yl)-3-(1-methylpyrazol-4-yl)pyrrolo[3,2-b]pyridin-1-yl]-2-phenyl-ethanol]",IC50,MV-4-11,≤ 1 µM
same,pIC50,bromodomain,> 5.00
"Cc1noc(C)c1-c1cnc2c(-c3cnn(C)c3)cn(Cc3ccccc3Cl)c2c1 [P-0193, 4-[1-[(2-chlorophenyl)methyl]-3-(1-methylpyrazol-4-yl)pyrrolo[3,2-b]pyridin-6-yl]-3,5-dimethyl-isoxazole]",IC50,MV-4-11,≤ 1 µM
same,pIC50,bromodomain,> 5.00
"Cc1noc(C)c1-c1cnc2c(-c3cnn(C)c3)cn(Cc3ccccc3OC(F)(F)F)c2c1 [P-0194, 3,5-dimethyl-4-[3-(1-methylpyrazol-4-yl)-1-[[2-(trifluoromethoxy)phenyl]methyl]pyrrolo[3,2-b]pyridin-6-yl]isoxazole]",IC50,MV-4-11,≤ 1 µM
same,pIC50,bromodomain,> 5.00
"Cc1noc(C)c1-c1cnc2c(-c3cnn(C)c3)cn(Cc3cccnc3)c2c1 [P-0195, 3,5-dimethyl-4-[3-(1-methylpyrazol-4-yl)-1-(3-pyridylmethyl)pyrrolo[3,2-b]pyridin-6-yl]isoxazole]",IC50,MV-4-11,≤ 1 µM
same,pIC50,bromodomain,> 5.00
"Cc1noc(C)c1-c1cnc2ccn(C(CC#N)C3CCCC3)c2c1 (centres unmarked) [P-0196, 3-cyclopentyl-3-[6-(3,5-dimethylisoxazol-4-yl)pyrrolo[3,2-b]pyridin-1-yl]propanenitrile]",IC50,MV-4-11,≤ 1 µM
same,pIC50,bromodomain,> 5.00

# Source: US10501460B2, “Heterocyclic compounds and uses thereof” (Plexxikon Inc., priority 2013, dated 2019)
